Paper PMC11472331 (Journal of Medicinal Chemistry, 2024)
Where two headings read alike, the source gives them in different places.

Tests used:
[1] = target: HDAC1 (Homo sapiens, UniProt Q13547); test: HDAC isoform inhibition assay (Reaction Biology); conditions: read-out: IC50 HDAC1; 10-dose IC50 mode, threefold serial dilution starting at 10 μM
[2] = target: T1, LSD1 (Homo sapiens, UniProt O60341); conditions: read-out: IC50 (μM, LSD1 inhibition); 10-dose IC50 mode, singlet, threefold serial dilution starting at 100 μM
[3] = target: HDAC2 (Homo sapiens, UniProt Q92769); test: HDAC isoform inhibition assay (Reaction Biology); conditions: read-out: IC50 HDAC2; 10-dose IC50 mode, threefold serial dilution starting at 10 μM
Sequence of HDAC2 (Q92769 whole entry, canonical isoform): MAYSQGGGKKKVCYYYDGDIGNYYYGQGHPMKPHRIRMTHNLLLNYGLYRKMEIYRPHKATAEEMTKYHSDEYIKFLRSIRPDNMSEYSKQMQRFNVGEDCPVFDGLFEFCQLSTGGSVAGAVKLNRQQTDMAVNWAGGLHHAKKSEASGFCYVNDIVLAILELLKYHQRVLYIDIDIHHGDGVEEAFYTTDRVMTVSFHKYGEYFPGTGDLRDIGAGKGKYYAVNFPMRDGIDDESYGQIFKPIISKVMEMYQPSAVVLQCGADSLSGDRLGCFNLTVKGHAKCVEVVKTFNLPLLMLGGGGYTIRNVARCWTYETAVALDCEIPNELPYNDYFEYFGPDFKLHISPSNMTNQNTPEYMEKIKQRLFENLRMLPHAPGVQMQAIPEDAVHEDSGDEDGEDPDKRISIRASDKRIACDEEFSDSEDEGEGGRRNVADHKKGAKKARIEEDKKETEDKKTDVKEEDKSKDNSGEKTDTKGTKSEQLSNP

[4] = in vivo; conditions: male, Sprague-Dawley, rat, plasma, po, 20 mg/kg
[5] = system: HCT-116; test: HCT-116 xenograft model; format: in vivo, Balb/c nude mice; conditions: 50 or 100 mg/kg ip qd, nude mice
Description: (A) Tumor size was evaluated twice a week, and (B) body weight was recorded daily in the first week, followed by semiweekly measurements.
Once the tumor sizes reached 150 mm^3, the mice were divided into four treatment groups, each comprising six mice. […] Throughout the experiment, tumor size and body weight were measured twice a week, with tumor volume (mm^3) calculated using the formula LW^2/2 (L is the tumor length, and W is the tumor width). Tumor growth inhibition (TGI) was calculated by dividing the tumor volumes from treatment groups by those of the control groups, expressed as a percentage.

[6] = target: T1, LSD1; test: KDM1/LSD1 activity quantification/colorimetric assay; format: biochemical; conditions: 1 and 10 μM; compared with Corgline, selegiline, tranylcypromine, pargyline
Description: LSD1 inhibitory assay was also performed using the KDM1/LSD1 Activity Quantification/Colorimetric Assay Kit, as described earlier.[38]

[7] = target: T2, HDAC6 (Homo sapiens, UniProt Q9UBN7); test: HDAC isoform inhibition assay (Reaction Biology)
T2 sequence (Q9UBN7 1-1215): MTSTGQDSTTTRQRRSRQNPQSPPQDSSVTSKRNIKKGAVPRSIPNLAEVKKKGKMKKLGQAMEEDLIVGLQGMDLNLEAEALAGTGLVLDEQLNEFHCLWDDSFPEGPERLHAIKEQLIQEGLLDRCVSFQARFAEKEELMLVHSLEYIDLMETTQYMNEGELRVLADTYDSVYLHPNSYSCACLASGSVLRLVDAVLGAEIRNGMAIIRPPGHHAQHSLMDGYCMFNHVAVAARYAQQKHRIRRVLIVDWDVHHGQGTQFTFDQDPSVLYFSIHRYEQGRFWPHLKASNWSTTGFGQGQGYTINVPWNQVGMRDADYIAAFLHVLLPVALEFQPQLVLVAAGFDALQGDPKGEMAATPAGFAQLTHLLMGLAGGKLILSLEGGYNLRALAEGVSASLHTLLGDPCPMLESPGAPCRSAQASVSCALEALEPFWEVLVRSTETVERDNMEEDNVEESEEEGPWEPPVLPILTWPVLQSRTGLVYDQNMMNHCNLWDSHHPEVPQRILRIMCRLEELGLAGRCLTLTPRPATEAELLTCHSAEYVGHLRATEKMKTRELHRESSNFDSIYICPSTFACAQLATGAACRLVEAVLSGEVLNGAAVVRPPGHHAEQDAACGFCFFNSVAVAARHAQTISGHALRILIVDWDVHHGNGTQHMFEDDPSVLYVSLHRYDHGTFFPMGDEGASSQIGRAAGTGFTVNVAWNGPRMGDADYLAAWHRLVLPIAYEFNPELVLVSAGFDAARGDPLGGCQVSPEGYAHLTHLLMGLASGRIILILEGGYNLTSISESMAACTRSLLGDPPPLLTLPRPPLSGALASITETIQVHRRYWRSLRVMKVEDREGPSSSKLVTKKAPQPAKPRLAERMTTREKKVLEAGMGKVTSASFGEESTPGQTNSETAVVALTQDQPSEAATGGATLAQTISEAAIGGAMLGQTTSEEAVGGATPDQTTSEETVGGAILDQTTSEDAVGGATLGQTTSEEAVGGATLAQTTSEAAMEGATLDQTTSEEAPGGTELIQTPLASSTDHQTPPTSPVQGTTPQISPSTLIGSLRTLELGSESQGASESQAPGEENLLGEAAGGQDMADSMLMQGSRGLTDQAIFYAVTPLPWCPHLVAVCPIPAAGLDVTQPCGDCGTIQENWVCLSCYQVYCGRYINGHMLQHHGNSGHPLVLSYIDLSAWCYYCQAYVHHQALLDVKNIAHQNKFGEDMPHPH

[8] = target: T3, HDAC8 (Homo sapiens, UniProt Q9BY41); test: HDAC isoform inhibition assay (Reaction Biology); conditions: read-out: IC50 HDAC8; 10-dose IC50 mode, threefold serial dilution starting at 10 μM
T3 sequence (Q9BY41 1-377): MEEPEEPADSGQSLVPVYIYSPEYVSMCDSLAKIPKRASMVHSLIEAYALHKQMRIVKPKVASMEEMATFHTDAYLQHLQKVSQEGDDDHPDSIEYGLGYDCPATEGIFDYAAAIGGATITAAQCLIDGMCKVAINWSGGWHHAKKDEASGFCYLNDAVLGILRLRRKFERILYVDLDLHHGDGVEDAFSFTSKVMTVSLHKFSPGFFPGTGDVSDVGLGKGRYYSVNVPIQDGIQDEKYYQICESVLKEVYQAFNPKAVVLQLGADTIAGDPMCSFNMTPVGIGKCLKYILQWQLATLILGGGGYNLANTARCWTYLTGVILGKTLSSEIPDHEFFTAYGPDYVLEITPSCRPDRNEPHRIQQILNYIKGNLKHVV

[9] = read-out: IC50 HDAC6, 10-dose IC50 mode, threefold serial dilution starting at 10 μM

Sequence of HDAC1 (Q13547 whole entry, canonical isoform): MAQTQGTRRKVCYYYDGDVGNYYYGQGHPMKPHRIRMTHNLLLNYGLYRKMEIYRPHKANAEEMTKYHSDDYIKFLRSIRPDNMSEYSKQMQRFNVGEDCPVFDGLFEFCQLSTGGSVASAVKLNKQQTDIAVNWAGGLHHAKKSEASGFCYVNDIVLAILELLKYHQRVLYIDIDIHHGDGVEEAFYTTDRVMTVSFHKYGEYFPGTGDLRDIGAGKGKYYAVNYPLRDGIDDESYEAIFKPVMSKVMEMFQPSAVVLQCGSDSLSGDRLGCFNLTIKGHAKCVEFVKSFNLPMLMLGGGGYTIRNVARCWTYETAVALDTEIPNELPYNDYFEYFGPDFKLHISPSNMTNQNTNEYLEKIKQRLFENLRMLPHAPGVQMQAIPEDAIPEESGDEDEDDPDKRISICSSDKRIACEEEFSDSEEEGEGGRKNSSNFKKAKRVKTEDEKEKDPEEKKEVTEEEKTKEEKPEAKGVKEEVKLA

| SMILES | IC50 [1] [nM] | IC50 [2] [µM] | IC50 [3] [nM] | IC50 [7, 9] [nM] | IC50 [8] [nM] | further results |
| --- | --- | --- | --- | --- | --- | --- |
| O=C(NO)c1ccc(CN[C@@H]2C[C@H]2c2ccccc2)cc1 [Compound 1, N-Hydroxy-4-((((1R,2S)-2-phenylcyclopropyl)amino)methyl)benzamide] | 8720 | 28 |  |  |  |  |
| O=C(/C=C/c1cccc(S(=O)(=O)N[C@@H]2C[C@H]2c2ccccc2)c1)NO [Compound 2, (E)-N-Hydroxy-3-(3-(N-((1R,2S)-2-phenylcyclopropyl)sulfamoyl)phenyl)acrylamide] | 125 | 0.571 | 373 | 11.8 |  | Tmax [4]: 1.1 ± 0.9 h; toxicity based on body weight measurements [5]: did not cause evident toxicity in animals; inhibition of LSD1 activity versus standard LSD1 inhibitors [6]: more effective in inhibiting the activity of LSD1 than the standard LSD1 inhibitor; IC50 [7]: 11 nM |
| O=C(/C=C/c1ccc(S(=O)(=O)N[C@@H]2C[C@H]2c2ccccc2)cc1)NO [Compound 3, (E)-N-Hydroxy-3-(4-(N-((1R,2S)-2-phenylcyclopropyl)sulfamoyl)phenyl)acrylamide] | 116 | 0.899 | 343 | 9.66 | 753 | IC50 [7]: 9 nM |
| O=C(CCCCCC(=O)N[C@@H]1C[C@H]1c1ccccc1)NO [Compound 4, N1-Hydroxy-N7-((1R,2S)-2-phenylcyclopropyl)heptanediamide] |  | 38.3 |  |  |  |  |
| O=C(CCCCCCC(=O)N[C@@H]1C[C@H]1c1ccccc1)NO [Compound 5, N1-Hydroxy-N8-((1R,2S)-2-phenylcyclopropyl)octanediamide] |  | 14.6 |  |  |  |  |
| O=C(CCCCCCCCC(=O)N[C@@H]1C[C@H]1c1ccccc1)NO [Compound 7, N1-Hydroxy-N10-((1R,2S)-2-phenylcyclopropyl)decanediamide] |  | 7.68 |  |  |  |  |
| O=C(CCCCCCC(=O)Nc1ccc(CN[C@@H]2C[C@H]2c2ccccc2)cc1)NO [Compound 8] |  | 1.61 |  | 3730 |  |  |
| O=C(NO)c1ccc(CN2CCC(CN[C@@H]3C[C@H]3c3ccccc3)CC2)cc1 [Compound 9, N-Hydroxy-4-((4-((((1R,2S)-2-phenylcyclopropyl)amino)methyl)piperidin-1-yl)methyl)benzamide] | 12900 |  |  |  | 1260 |  |
| O=C(NO)c1ccc(CN2CCC(S(=O)(=O)N[C@@H]3C[C@H]3c3ccccc3)CC2)cc1 [Compound 10, N-Hydroxy-4-((4-(N-((1R,2S)-2-phenylcyclopropyl)sulfamoyl)piperidin-1-yl)methyl)benzamide] | 4120 | 2.4 | 8300 | 9.32 | 407 | IC50 ([7]; read-out: HDAC6 IC50 as given in the text, rounded values of the running text): 9 nM |
